Assay results as given in patent US20110172296A1, “MODULATION OF TRANSFORMING GROWTH FACTOR-BETA 1 EXPRESSION” (priority 2010, published 2011).
e = 2'-O-(2-methoxyethyl) (MOE); d = 2'-deoxy (DNA)

Tested on: human TGF-beta1 mRNA
Test: Dose-dependent antisense inhibition of human TGF-beta1 in HuVEC cells, Lipofectamine 2000, 0.9375-30 nM (Example 3)
Assay type: cell-based
Settings: Lipofectamine 2000
Description: Cells were plated at a density of 5,000 cells per well and transfected using Lipofectamine™ 2000 reagent with 0.9375 nM, 1.875 nM, 3.75 nM, 7.5 nM, 15 nM, and 30 nM concentrations of antisense oligonucleotide for 4 hours, as specified in Table 3. After a recovery period of approximately 16 hours, RNA was isolated from the cells and TGF-beta1 mRNA levels were measured by quantitative real-time PCR. Human TGF-beta1 primer probe set RTS 2980 (forward sequence CTCTCCGACCTGCCACAGA, SEQ ID NO: 160; reverse sequence […], SEQ ID NO: 53; probe sequence CCCTATTCAAGACCACCCACCTTCTGGTX, SEQ ID NO: 161) was used to measure mRNA levels. TGF-beta1 mRNA levels were adjusted according to total RNA content, as measured by RIBOGREEN®. Results are presented as percent inhibition of TGF-beta1, relative to untreated control cells.

414036 (antisense GTGTCCTTAAATACAGCCCC; sugars from the 5' end e2 d13 e5, backbone and methylation of C not given here) [compound 414036]
percent inhibition of TGF-beta1 (0.9375 nM): 56%
percent inhibition of TGF-beta1 (1.875 nM): 75%
percent inhibition of TGF-beta1 (3.75 nM): 86%
percent inhibition of TGF-beta1 (7.5 nM): 93%
percent inhibition of TGF-beta1 (15 nM): 95%
percent inhibition of TGF-beta1 (30 nM): 93%
